Data on two compounds can be found in US8329425B2, “Method and system for detection of chloramphenicol” (priority 2011, dated 2012).

The target of test [1] is T1, CAT I V28W mutant (Escherichia coli, UniProt P62577, C126A/C196A/C212A/C31A/C91A/V28W). Briefly: Fluorescence response of fluorescein-linked chloramphenicol to CAT I V28W mutant. The class given is binding, E. coli. Also on record: His6 (N); made in house; host or cells: E. coli BL21 (DE3). The settings on record: 0.15 μM fluorescein-linked chloramphenicol, 1.5 μM CAT I V28W (FIG. 6); excitation 494 nm, slit width 5 nm. The source says:
The excitation wavelength is 494 nm and the slit width is 5 nm.

The target in test [2] is T1, CAT I V28W mutant. The settings on record: chloramphenicol 10 μM; CAT I V28W and fluorescein-linked chloramphenicol fixed at 0.15 μM; excitation 494 nm.
Procedure: Fluorescence measurements were performed on a Perkin Elmer LS 50B spectrofluorometer with the excitation wavelength set at 494 nm and the excitation and emission slit width set at 5 nm.

In the case of `O=C(CCCCCNC(=S)Nc1ccc(-c2c3ccc(=O)cc-3oc3cc(O)ccc23)c(C(=O)O)c1)N[C@H](CO)[C@H](O)c1ccc([N+](=O)[O-])cc1` [fluorescein-linked chloramphenicol, 5-(3-(6-(((1R,2R)-1,3-dihydroxy-1-(4-nitrophenyl)propan-2-yl)amino)-6-oxohexyl)thioureido)-2-(6-hydroxy-3-oxo-3H-xanthen-9-yl)benzoic acid], the “fluorescence of fluorescein-linked chloramphenicol in the presence of CAT I V28W mutant” value in test [1] is recorded as “significantly reduced”.
With `O=C(N[C@H](CO)[C@H](O)c1ccc([N+](=O)[O-])cc1)C(Cl)Cl` [chloramphenicol], in test [2], the increase in fluorescence was roughly 10%.
